Assay results: publication PMC11990158, “Synthetic Epoxyeicosatrienoic Acid Mimics Protect Mesangial Cells from Sorafenib-Induced Cell Death” (Molecules, 2025)

test system: human renal mesangial cells (HRMCs); experiment: WST-8 cell viability assay, protection against sorafenib-induced cell death; assay type: cell-based; conditions: sorafenib 10 µM alone, 48 h
Experimental: Human renal mesangial cells (4200, ScienCell, Carlsbad, CA, USA) were cultured at 37 °C (in 5% CO2) in RPMI 1640 medium (Gibco™, LS11875093) containing 10% FBS, 100 U/mL of penicillin, and 0.1 mg/mL of streptomycin. The cells were subculture following the protocol of the manufacturer.
WST assay: To evaluate the effect of 8,9-EET analogs and sorafenib on the viability of human renal mesangial cells, a 96-well TPP plate is seeded with cells, which are then allowed to adhere. Over the course of 24 h, they undergo serum starvation before being subject to one of five treatments: Control (no treatment), Sorafenib (10 µM), Sorafenib plus 8,9-EET analogs (1 µM, 3 µM or 10 µM). After 48 h incubation, a WST assay used to gain information on cell survival; we added 10 μL WST reagent per well and incubated for 2 h. WST-8 tetrazolium salt is reduced by cellular dehydrogenases to an orange formazan product that is soluble in tissue culture medium. The amount of formazan produced is directly proportional to the number of living cells and is measured by absorbance at 460 nm. The absorbance at 460 nm is determined using a Synergy 4 Microplate Reader.

| SMILES | cells dying on sorafenib exposure |
| --- | --- |
| CNC(=O)c1cc(Oc2ccc(NC(=O)Nc3ccc(Cl)c(C(F)(F)F)c3)cc2)ccn1 [Sorafenib] | around 90% |

biological target: T1, human soluble epoxide hydrolase (sEH) (Homo sapiens, UniProt P34913); experiment: not given; conditions: cited from earlier work
T1 sequence (P34913 1-555): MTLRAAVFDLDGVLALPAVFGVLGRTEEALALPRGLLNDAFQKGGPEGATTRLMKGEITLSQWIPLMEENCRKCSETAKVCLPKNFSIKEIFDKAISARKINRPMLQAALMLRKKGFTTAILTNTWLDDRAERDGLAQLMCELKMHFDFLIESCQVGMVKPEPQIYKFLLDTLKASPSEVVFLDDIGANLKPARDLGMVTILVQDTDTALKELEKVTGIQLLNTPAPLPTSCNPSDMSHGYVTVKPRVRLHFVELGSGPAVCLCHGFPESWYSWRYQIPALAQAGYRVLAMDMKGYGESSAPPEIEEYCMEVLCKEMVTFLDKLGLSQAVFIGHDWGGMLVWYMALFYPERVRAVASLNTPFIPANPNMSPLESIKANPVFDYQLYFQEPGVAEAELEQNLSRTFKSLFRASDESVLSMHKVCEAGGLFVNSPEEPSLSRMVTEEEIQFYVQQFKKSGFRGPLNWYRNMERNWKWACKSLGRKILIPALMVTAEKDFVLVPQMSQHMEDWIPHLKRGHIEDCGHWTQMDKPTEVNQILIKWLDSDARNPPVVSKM

| SMILES | sEH inhibition (in words) |
| --- | --- |
| CNC(=O)c1cc(Oc2ccc(NC(=O)Nc3ccc(Cl)c(C(F)(F)F)c3)cc2)ccn1 [Sorafenib] | potent sEH inhibitor |

biological target: T1, human soluble epoxide hydrolase (sEH); experiment: Human sEH inhibition, fluorescent assay (MNPC substrate); assay type: biochemical; conditions: not given
Experimental: The inhibition potency of the compounds against the recombinant purified human and mouse sEH and human mEH were measured using sensitive fluorescent assays. The enzymes were diluted to the proper buffer and aliquoted in black 96-well plates. The enzymes were incubated with the inhibitors (0.4 < [I] < 50,000 nM) for 5 min at 37 °C before the introduction of the reporting substrate. For the sEH, nonfluorescent cyano(6-methoxy-naphthalen-2-yl)methyl trans-[(3-phenyloxiran-2-yl)methyl] carbonate MNPC was used as the reporting substrate at a final concentration of 5 μM [51]. For the mEH, cyano(6-methoxy-naphthalen-2-yl)methyl glycidyl carbonate (MNGC) was used at a final concentration of 5 µM. The formation of the product (6-methoxynaphthaldehyde) was measured ([…]) every 30 s for 10 min by a Molecular Device M-2 plate reader. All measurements were performed in triplicate. The inhibitory potency (IC50) was calculated by regression of at least four data points on both sides of the 50% mark.

| sEH inhibition (in words) | SMILES |
| --- | --- |
| insignificant inhibitor of sEH | CCCCCCCCCCCNC(=O)C(=O)NCCCCCC(=O)O [8b, 6-(2-Oxo-2-(undecylamino)acetamido)hexanoic Acid] |

same assay, conditions: recombinant purified human sEH, 5 min preincubation at 37 °C, MNPC 5 µM; read-out: HsEH IC50

| IC50 | SMILES |
| --- | --- |
| 2100 nM | CCCCCCCCCCNC(=O)NC/C=C\COCC(=O)O [7c, (Z)-2-((4-(3-Decylureido)but-2-en-1-yl)oxy)acetic Acid] |
| 2600 nM | CCCCCCCC/C=C\CNC(=O)NC/C=C\COCC(=O)O [7f, 2-(((Z)-4-(3-((Z)-undec-2-en-1-yl)ureido)but-2-en-1-yl)oxy)acetic Acid] |
| 51000 nM | CCCCCCCCCCNC(=O)C(=O)NCCCCCC(=O)O [8a, 6-(2-(Decylamino)-2-oxoacetamido)hexanoic Acid] |
| > 100000 nM | CCCCCCCCCCCNC(=O)C(=O)NCCCCCC(=O)O [8b, 6-(2-Oxo-2-(undecylamino)acetamido)hexanoic Acid] |
| 64000 nM | CCCCCCCCCNC(=O)C(=O)NCCCCCCC(=O)O [8c, 7-(2-(Nonylamino)-2-oxoacetamido)heptanoic Acid] |
| 49000 nM | CCCCCCCCCCNC(=O)C(=O)NCCCCCCC(=O)O [8d, 7-(2-(Decylamino)-2-oxoacetamido)heptanoic Acid] |
| 19000 nM | CCCCCCCC/C=C\CNC(=O)C(=O)NCCCCCC(=O)O [8e, (Z)-6-(2-Oxo-2-(undec-2-en-1-ylamino)acetamido)hexanoic Acid] |
| 9600 nM | CCCCCCCCCCCC(=O)NCCCCCC(=O)O [9a, 6-Dodecanamidohexanoic Acid] |
| 6400 nM | CCCCCCCCCCCCC(=O)NCCCCCC(=O)O [9b, 6-Tridecanamidohexanoic Acid] |
| 2300 nM | CCCCCCCCCCCC(=O)NCCCCCCC(=O)O [9c, 7-Dodecanamidoheptanoic Acid] |
| 2400 nM | CCCCCCCCCCCCC(=O)NCCCCCCC(=O)O [9d, 7-Tridecanamidoheptanoic Acid] |
| 3500 nM | CCCCCCCCCCCNC(=O)CCCCCCC(=O)O [10a, 8-Oxo-8-(undecylamino)octanoic Acid] |
| 2700 nM | CCCCCCCCCCCCNC(=O)CCCCCCC(=O)O [10b, 8-(Dodecylamino)-8-oxooctanoic Acid] |
| 900 nM | CCCCCCCCCCCNC(=O)CCCCCCCC(=O)O [10c, 9-Oxo-9-(undecylamino)nonanoic Acid] |
| 820 nM | CCCCCCCC/C=C\CNC(=O)CCCCCCCC(=O)O [10d, (Z)-9-Oxo-9-(undec-2-en-1-ylamino)nonanoic Acid] |

| SMILES | IC50 |
| --- | --- |
| CCCCCCCCCCNC(=O)NCCCCOCC(=O)O [7a, 2-(4-(3-Decylureido)butoxy)acetic Acid] | 830 nM |
| CCCCCCCCCCCNC(=O)NCCCCOCC(=O)O [7b, 2-(4-(3-Undecylureido)butoxy)acetic Acid] | 1800 nM |
| CCCCCCCC/C=C\CNC(=O)NCCCCOCC(=O)O [7e, (Z)-2-(4-(3-(undec-2-en-1-yl)ureido)butoxy)acetic Acid] | 1600 nM |
